Measured values reported in ChEMBL document CHEMBL1201862, “PubChem BioAssay data set” (2004).
Calls of active or inactive are those of the source. Cut-off read from the data, not from the text of the source, for most assays here: actives have a measured EC50 and inactives only a lower limit.

Tests used:
[1] = molecular target: T1, Replicative DNA helicase DnaB (Mycobacterium tuberculosis, UniProt P9WMR3); assay: DnaB intein splicing inhibitors, dose response, biochemical, cell-free fluorescence (AID 449749); format: functional
T1 sequence (P9WMR3 whole entry): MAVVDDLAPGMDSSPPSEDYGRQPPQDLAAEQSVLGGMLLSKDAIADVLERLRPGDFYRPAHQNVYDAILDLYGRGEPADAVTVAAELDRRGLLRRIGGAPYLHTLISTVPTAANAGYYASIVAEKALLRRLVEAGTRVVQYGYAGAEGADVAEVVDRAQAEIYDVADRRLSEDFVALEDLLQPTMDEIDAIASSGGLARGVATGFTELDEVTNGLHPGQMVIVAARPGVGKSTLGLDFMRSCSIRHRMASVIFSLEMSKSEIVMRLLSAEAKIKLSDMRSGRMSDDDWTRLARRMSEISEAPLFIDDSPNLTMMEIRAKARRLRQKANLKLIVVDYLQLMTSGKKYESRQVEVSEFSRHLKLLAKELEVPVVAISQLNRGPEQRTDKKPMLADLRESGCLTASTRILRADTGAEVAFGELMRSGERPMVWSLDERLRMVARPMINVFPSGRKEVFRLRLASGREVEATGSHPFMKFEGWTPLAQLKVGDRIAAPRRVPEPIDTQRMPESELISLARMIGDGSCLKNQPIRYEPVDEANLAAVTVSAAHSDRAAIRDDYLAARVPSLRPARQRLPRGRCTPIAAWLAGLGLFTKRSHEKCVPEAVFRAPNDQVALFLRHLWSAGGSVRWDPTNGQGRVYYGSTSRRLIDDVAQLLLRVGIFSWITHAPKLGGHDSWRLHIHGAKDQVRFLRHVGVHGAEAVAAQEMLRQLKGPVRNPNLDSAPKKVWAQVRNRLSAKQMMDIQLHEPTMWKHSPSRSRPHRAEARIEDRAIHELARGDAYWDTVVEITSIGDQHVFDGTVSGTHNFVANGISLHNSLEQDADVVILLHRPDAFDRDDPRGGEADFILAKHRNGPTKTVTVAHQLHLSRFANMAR

[2] = Trypanosoma cruzi growth suppression in host cells – NIH3T3 host cells, beta-gal luminescence, confirmation (AID 2044); format: functional, cell-based;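 note: intracellular parasites grown in NIH/3T3 mouse fibroblasts as host cells; luminescent beta-galactosidase reporter signal from transgenic T. cruzi replicating inside host cells; inhibitors lower the luminescence signal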
[3] = molecular target: Melanocortin receptor 4 (Homo sapiens, UniProt P32245); assay: inhibitors of MC4R cAMP signaling – cell-based, TR-FRET, biased antagonists, dose response (AID 602298); format: functional;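 note: antagonist potency against agonist-stimulated cAMP production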
Melanocortin receptor 4, sequence (P32245 whole entry): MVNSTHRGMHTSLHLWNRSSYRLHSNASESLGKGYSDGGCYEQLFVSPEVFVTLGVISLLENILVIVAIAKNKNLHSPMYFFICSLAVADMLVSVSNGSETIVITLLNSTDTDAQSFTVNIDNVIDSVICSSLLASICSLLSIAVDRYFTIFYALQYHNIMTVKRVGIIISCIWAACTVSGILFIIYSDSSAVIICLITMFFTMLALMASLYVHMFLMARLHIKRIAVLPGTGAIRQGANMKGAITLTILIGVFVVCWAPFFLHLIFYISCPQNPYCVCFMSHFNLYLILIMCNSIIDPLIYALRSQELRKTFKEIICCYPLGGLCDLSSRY

[4] = cAMP pathway inhibition in counterscreen cell line – TR-FRET cAMP detection, counter-screen for MC4R biased antagonist project, dose response (AID 602305); format: functional, cell-based;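 note: U2OS cells stimulated with forskolin near its EC80 as the cAMP inducer; potency is for inhibition of forskolin-stimulated cAMP signaling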
[5] = NIH3T3 cell viability loss – ATP luminescence, mouse fibroblasts, counter-screen, dose response (AID 2010); format: functional, cell-based;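 note: cells exposed to compound for about 90 hours before reading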
[6] = molecular target: T2, Heat shock factor protein 1 (Mus musculus, UniProt P38532); assay: enhancement of HSF1-driven luciferase signal – cell-based, NIH3T3, luminescence, dose retest, confirmation (AID 435004); format: functional;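 note: stress induced by proteasome inhibitor MG132 added 30 min after compound; luciferase reporter driven by HSF1 response element in NIH3T3 cells; actives raise luminescence as potentiators of the MG132 stress response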
T2 sequence (P38532 whole entry): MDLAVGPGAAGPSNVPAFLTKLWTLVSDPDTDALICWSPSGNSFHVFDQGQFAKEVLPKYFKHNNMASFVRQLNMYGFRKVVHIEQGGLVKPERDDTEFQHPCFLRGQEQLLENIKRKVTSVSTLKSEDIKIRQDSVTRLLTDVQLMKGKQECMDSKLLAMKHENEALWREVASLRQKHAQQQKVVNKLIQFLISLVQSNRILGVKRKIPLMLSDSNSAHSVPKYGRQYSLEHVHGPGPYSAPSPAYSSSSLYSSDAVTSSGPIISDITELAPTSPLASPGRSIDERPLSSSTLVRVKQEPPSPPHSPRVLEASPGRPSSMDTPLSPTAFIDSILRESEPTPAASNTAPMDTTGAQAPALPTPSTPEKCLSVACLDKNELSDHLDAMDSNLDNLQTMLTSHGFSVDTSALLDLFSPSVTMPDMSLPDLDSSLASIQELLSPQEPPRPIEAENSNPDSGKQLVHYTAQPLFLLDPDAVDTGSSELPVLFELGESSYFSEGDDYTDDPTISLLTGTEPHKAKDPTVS

[7] = molecular target: T3, Protein RecA (Mycobacterium tuberculosis, UniProt P9WHJ3); assay: Fluorescence Cell-Free Homogeneous Dose Retest to Identify Inhibitors of RecA-Intein Splicing Activity. [Related pubchem assays (depositor defined):AID2097, AID2223, AID489010, AID492950]; format: functional
T3 sequence (P9WHJ3 whole entry): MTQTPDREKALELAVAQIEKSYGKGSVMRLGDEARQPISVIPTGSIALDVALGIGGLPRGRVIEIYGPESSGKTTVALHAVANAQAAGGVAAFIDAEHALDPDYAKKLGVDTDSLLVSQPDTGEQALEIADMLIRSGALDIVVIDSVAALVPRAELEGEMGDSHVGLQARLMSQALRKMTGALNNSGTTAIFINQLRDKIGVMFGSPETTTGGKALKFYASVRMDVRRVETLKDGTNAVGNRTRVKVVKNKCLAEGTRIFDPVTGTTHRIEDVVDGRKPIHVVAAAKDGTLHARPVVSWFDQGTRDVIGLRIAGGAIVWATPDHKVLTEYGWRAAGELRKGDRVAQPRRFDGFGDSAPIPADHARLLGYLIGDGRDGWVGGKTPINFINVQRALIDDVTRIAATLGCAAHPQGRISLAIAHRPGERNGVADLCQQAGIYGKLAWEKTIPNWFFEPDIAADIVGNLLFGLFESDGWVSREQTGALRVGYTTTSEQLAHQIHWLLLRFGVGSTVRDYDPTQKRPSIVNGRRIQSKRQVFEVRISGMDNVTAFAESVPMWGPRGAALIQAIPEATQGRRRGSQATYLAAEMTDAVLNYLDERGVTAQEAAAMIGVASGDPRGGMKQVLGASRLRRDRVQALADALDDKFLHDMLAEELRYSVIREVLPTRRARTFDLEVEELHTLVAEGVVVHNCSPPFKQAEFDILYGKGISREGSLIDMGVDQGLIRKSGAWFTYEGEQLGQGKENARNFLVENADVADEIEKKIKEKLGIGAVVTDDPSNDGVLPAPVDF

[8] = NIH-3T3 fibroblast cytotoxicity, dose response, cytotoxicity control, cell-based, fluorescence, Alamar Blue, secondary assay (AID 2327); format: functional;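 note: NIH-3T3 mouse fibroblasts cultured with fluconazole at 8 µg/mL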
[9] = fluconazole-exposed Candida albicans growth modulators – fluorescence, retest, confirmation (AID 2467); format: functional, cell-based
[10] = molecular target: ATP-dependent molecular chaperone HSP82 (Candida albicans (strain WO-1) (Yeast), UniProt C4YTQ8); assay: steroid-induced GRE reporter decrease in yeast – S. cerevisiae, luminescence, Hsp90 inhibitor project, dose response (AID 2400); format: functional, cell-based;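 note: beta-galactosidase luminescence from glucocorticoid response element reporter as proxy for Hsp90 function; inhibitor potency where signal loss means Hsp90 inhibition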
ATP-dependent molecular chaperone HSP82, sequence (C4YTQ8 whole entry): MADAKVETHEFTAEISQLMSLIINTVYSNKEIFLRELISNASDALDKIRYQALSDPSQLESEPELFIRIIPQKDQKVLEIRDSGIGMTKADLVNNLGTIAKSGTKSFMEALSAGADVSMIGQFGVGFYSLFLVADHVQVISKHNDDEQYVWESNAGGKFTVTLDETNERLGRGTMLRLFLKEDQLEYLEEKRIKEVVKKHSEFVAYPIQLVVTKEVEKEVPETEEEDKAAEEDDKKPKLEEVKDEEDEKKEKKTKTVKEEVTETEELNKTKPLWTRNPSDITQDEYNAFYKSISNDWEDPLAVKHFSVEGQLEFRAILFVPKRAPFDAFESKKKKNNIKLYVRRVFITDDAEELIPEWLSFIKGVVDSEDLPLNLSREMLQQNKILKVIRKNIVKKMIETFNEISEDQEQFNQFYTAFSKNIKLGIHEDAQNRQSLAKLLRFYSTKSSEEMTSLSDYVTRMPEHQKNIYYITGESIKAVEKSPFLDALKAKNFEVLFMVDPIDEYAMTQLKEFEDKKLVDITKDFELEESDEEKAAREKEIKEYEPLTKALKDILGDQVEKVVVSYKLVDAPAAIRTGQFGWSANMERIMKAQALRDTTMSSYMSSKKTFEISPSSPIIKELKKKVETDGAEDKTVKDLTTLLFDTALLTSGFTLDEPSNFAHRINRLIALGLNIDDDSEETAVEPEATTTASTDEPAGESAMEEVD

[11] = molecular target: T4, Serine/threonine-protein phosphatase (Candida dubliniensis (strain CD36 / CBS 7987 / NCPF 3949 / NRRLY-17841) (Yeast), UniProt B9W6M3); assay: blockers of CaCl2-induced CDRE-lacZ signaling – S. cerevisiae, luminescence, secondary, dose response (AID 2388); format: functional, cell-based;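 note: yeast reporter cells carrying a calcineurin-responsive lacZ construct stimulated with calcium chloride; luminescent beta-galactosidase reporter signal in whole cells rather than isolated phosphatase activity; potency for inhibition where a drop in reporter signal means calcineurin blockade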
T4 sequence (B9W6M3 whole entry): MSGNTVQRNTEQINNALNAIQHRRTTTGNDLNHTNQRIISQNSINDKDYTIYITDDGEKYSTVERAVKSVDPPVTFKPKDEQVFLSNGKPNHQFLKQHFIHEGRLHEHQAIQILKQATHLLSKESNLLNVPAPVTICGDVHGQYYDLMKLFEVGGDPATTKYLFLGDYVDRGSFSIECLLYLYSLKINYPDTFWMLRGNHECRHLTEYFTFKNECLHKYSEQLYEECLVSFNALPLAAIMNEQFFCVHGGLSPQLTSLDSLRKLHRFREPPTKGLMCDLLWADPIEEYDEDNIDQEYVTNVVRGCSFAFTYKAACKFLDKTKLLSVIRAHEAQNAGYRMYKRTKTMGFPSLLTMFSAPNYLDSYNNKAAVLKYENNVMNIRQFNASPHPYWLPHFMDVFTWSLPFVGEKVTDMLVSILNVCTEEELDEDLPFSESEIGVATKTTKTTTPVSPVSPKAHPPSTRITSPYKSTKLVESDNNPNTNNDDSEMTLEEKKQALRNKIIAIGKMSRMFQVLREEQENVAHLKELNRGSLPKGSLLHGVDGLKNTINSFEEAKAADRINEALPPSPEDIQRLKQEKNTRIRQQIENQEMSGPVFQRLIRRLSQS

[12] = test system: HEK293; assay: EBV LMP1 TES2 canonical NF-kB signalling blockers – cell-based, HEK293, luciferase, cherry-pick, dose response (AID 588343); format: functional; conditions: Homo sapiens
[13] = Luminescence Cell-Based Dose Retest to Confirm Inhibitors of Cancer Stem Cells. [Related pubchem assays (depositor defined):AID2717, AID2721]; format: functional; conditions: Homo sapiens
[14] = test system: BJ; assay: BJ-TERT fibroblast viability loss – cell-based, RAS-independent, luminescence, dose response (AID 1933); format: functional; conditions: Homo sapiens
[15] = test system: BJ; assay: growth inhibition of engineered Ras-driven BJ cells – cell-based, alamar blue fluorescence, cherrypicked samples, dose response (AID 2631); format: functional; conditions: Homo sapiens;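 note: confirmatory dose-response assay in RAS-dependent BJ fibroblasts engineered with TERT, LT and ST, with cytotoxicity read by fluorescence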
[16] = test system: BJ; assay: cells; format: functional, cell-based; conditions: Homo sapiens
[17] = test system: BJ; assay: BJ-TERT-LT-ST fibroblast viability loss – cell-based, RAS-independent, luminescence, dose response (AID 1935); format: functional; conditions: Homo sapiens;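 note: BJ fibroblasts immortalized with TERT plus LT and ST oncogenes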
[18] = DRD fibroblast viability loss – cell-based, non-viral oncogenic, luminescence, dose response (AID 1934); format: functional; conditions: Homo sapiens
[19] = Luminescence Cell-Based Dose Confirmation HTS to Identify Inhibitors of Platelet Dense Granule Release. [Related pubchem assays: 1663 (Primary HTS), 1678 (Summary of Project)]; format: functional
[20] = molecular target: Luciferin 4-monooxygenase (Photinus pyralis, UniProt P08659); assay: inhibition of purified Photinus pyralis luciferase – biochemical, luminescence, dose response (AID 1891)
Luciferin 4-monooxygenase, sequence (P08659 whole entry, the tested form may be a part): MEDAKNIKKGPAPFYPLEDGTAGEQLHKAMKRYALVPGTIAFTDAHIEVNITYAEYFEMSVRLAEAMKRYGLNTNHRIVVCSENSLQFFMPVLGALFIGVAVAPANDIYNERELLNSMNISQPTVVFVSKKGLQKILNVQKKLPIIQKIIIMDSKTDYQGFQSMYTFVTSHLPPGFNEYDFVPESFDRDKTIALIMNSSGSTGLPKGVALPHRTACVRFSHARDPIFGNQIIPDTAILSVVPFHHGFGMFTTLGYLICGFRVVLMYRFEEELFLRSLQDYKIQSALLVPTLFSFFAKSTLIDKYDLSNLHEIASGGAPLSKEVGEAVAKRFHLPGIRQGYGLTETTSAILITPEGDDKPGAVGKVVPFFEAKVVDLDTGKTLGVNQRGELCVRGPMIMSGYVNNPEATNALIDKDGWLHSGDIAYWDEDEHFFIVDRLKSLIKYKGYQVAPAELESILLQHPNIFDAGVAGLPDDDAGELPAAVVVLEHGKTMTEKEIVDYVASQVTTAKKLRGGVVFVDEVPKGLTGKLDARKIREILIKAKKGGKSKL

[21] = test system: CHO; assay: CHO cell viability loss, potency – luminescence, cytotoxicity control for TLR9-MyD88 binding inhibitor project, dose response (AID 588339); format: functional, cell-based, hamster; conditions: Cricetulus griseus;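 note: CHO cells stably coexpressing TLR9 and MyD88 fusions from primary screen; compound exposure lasted 48 hours before viability readout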
[22] = HEK-293T cell viability reduction – luminescence, B-cell screen hits, cytotoxicity control for BCR NF-kB inhibitor project, dose response (AID 489021); format: functional, cell-based;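 note: HEK-293T cells carrying an NF-kB luciferase reporter; cells exposed to compound for about 14 hours before viability readout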
[23] = alpha-synuclein stem-loop translation blockers – luminescence, H4 neuroglioblastoma cells, dose confirmation, confirmation (AID 2454); format: functional, cell-based;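 note: H4 neuroglioblastoma cells carrying an alpha-synuclein 5'UTR luciferase reporter; potency for inhibition of the luciferase signal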
[24] = alpha-synuclein stem-loop luciferase translation blockers – H4 neuroglioma cells, luminescence, confirmation (AID 1988); format: functional, cell-based
[25] = luciferase reporter signal suppression in cells – H4 neuroglioma cells, luminescence, dose response (AID 1990); format: functional, cell-based
[26] = Luminescence Cell-Based Dose Response HTS to Identify Inhibitors of 5'UTR Stem-Loop Driven Prion Protein mRNA Translation in H4 Neuroglioblastoma Cells. [Related pubchem assays: 1827 (Project Summary), 1813 (Primary HTS)]; format: functional
[27] = luciferase reporter signal reduction – luminescence, H4-C neuroglioblastoma cells, dose response (AID 2458); format: functional, cell-based;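 note: H4 neuroglioblastoma cells stably carrying a luciferase reporter gene fusion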
[28] = cells; format: functional, cell-based
[29] = test system: P388; assay: cells; format: functional; conditions: Mus musculus
[30] = test system: SN12K1; assay: cells; format: functional; conditions: Homo sapiens
[31] = test system: P388/ADR; assay: cells; format: functional; conditions: Mus musculus

## O=C(CCl)c1ccc2c(c1)CCN2C(=O)C1CCCCC1
[1]
  AC50: 42.4 µM (active)
[2]
  EC50: 1.92 µM (active)
[3]
  IC50: > 64.6 µM (inactive)
[4]
  IC50: > 64.6 µM (inactive)
[5]
  EC50: 6.6 µM (active)
[6]
  EC50: 4.1 µM (inconclusive)
[7]
  EC50: 4.08 µM (active)

## C=CCOC(=O)c1sc(NC(=O)c2ccco2)nc1C
[8]
  EC50: > 150 µM (inactive)
[9]
  EC50: 0.544 µM (active)
[10]
  EC50: 29.7 µM (active)
[11]
  EC50: > 180 µM (inactive)

## Cn1cccc1/C=C1\CC(C(C)(C)C)C/C(=C\c2cccn2C)C1=O (stereo not drawn)
[12]
  AC50: 160 µM (active)

## CCOC(=O)CSc1nnc(-c2ccc(NS(=O)(=O)c3ccc(C)cc3)cc2)o1
[3]
  IC50: > 64.6 µM (inactive)
[4]
  IC50: > 64.6 µM (inactive)

## O=C(NCc1cccnc1)c1ccc(NC(=O)c2ccc(Br)cc2)cc1
[13]
  AC50: 1.36 µM (active)
[14]
  EC50: > 150 µM (not active)
[15]
  EC50: 0.169 µM (active)
[16]
  EC50: 1.3 µM (inconclusive)
[17]
  EC50: 14 µM (active)
[18]
  EC50: > 150 µM (not active)

## CCOc1ccc(N/C=C/C(=O)c2ccccc2)cc1
[12]
  AC50: 3.62 µM (active)
[19]
  EC50: 2 µM (active)
[20]
  EC50: 0.453 µM (active)

## COC(=O)c1c(-c2ccc(N(C)C)cc2)sc2ccc(OC)cc12
[13]
  AC50: 3.3 µM (active)
[21]
  IC50: > 49.7 µM (inactive)
[22]
  IC50: > 80 µM (inactive)

## CC(C)N(c1ccccc1)c1ccc(NC(=O)COC(=O)CCN2C(=O)c3cccc([N+](=O)[O-])c3C2=O)cc1
[3]
  IC50: > 64.6 µM (inactive)
[4]
  IC50: > 64.6 µM (inactive)

## COc1ccc(S(=O)(=O)N2c3cc(Cl)ccc3Oc3nc4ccccc4nc32)cc1
[23]
  EC50: > 12 µM (not active)
[14]
  EC50: 6.91 µM (inconclusive)
[24]
  EC50: < 0.1 µM (active)
[25]
  EC50: 3.64 µM (inconclusive)
[26]
  EC50: 7.56 µM (active)
[15]
  EC50: < 0.104 µM (active)
[16]
  EC50: 5.06 µM (active)
[27]
  EC50: 2.41 µM (active)
[17]
  EC50: 3.81 µM (active)
[28]
  EC50: > 12 µM (not active)
[18]
  EC50: 7.55 µM (inconclusive)

## Cc1c2cnccc2c(C)c2c1c1ccccc1n2CCCCCCNCc1ccccc1
[29]
  GI50: 0.269 µM (active)
[30]
  GI50: 1.02 µM (active)
[31]
  GI50: 0.246 µM (active)

## CC[C@](C)(O)C(=O)O[C@H]1C(=O)O[C@@H]2C[C@H]3C(C)=C[C@H](O)[C@@H](O)[C@]3(C)[C@H]3[C@@]4(O)OC[C@]32[C@@H]1[C@@H](C)[C@H]4O
[29]
  GI50: 45.3 µM (inactive)
[30]
  GI50: 7.19 µM (inactive)
[31]
  GI50: 88.5 µM (inactive)

## NC1(C(=O)O)CCCC1 [CYCLOLEUCINE]
[29]
  GI50: > 625 µM (inactive)
[30]
  GI50: > 625 µM (inactive)
[31]
  GI50: > 625 µM (inactive)
